# Assay results from patent US11708348B2, “Protease inhibitors for treatment of coronavirus infections” (The Scripps Research Institute, priority 2021, dated 2023).
# System: SARS-CoV-2 strain USA-WA1/2020
# Test: microbe, parasite or virus in culture
# Format: cell-based
# Conditions: Severe acute respiratory syndrome coronavirus 2, HeLa-ACE2, 24 h, HeLa-ACE2 cells, SARS-CoV-2 infection, 24 h; cells given as a bound; read-out: EC50, uM (Hela)
row,Structure (SMILES),EC50
1,"CC(C)C[C@H](NC(=O)OCCCc1cccc(Cl)c1)C(=O)N[C@@H](C[C@@H]1CCNC1=O)C(=O)COc1c(F)c(F)cc(F)c1F [Compound 128, 3-(3-chlorophenyl)propyl ((S)-4-methyl-1-oxo-1-(((S)-3-oxo-1-((S)-2-oxopyrrolidin-3-yl)-4-(2,3,5,6-tetrafluorophenoxy)butan-2-yl)amino)pentan-2-yl)carbamate]",> 1 µM

# Same assay, conditions: Severe acute respiratory syndrome coronavirus 2, HeLa-ACE2, 24 h, HeLa-ACE2 cells, SARS-CoV-2 infection, 24 h; class symbols; read-out: EC50, uM (Hela)
row,Structure (SMILES),EC50
1,"CC(C)(C)C[C@H](NC(=O)C(=O)Nc1ccccc1F)C(=O)N[C@@H](C[C@@H]1CCNC1=O)C(=O)COc1c(F)c(F)cc(F)c1F [Compound 130, N1-((S)-4,4-dimethyl-1-oxo-1-(((S)-3-oxo-1-((S)-2-oxopyrrolidin-3-yl)-4-(2,3,5,6-tetrafluorophenoxy)butan-2-yl)amino)pentan-2-yl)-N2-(2-fluorophenyl)oxalamide]",< 0.05 µM
2,"CC(C)C[C@H](NC(=O)C(=O)NC1(c2ccccc2F)CC1)C(=O)N[C@@H](C[C@@H]1CCNC1=O)C(=O)COC(F)(F)F [Compound 216, Nl-(1-(2-fluorophenyl)-cyclopropyl)-N2-((S)-4-methyl-1-oxo-1-(((S)-3-oxo-1-((S)-2-oxopyrrolidin-3-yl)-4-(trifluoromethoxy)butan-2-yl)amino)pentan-2-yl)oxalamide]",< 0.05 µM
3,"C[C@](O)(C(=O)N1CC2(CC2)C[C@H]1C(=O)N[C@@H](C[C@@H]1CCNC1=O)C(=O)COC(F)(F)F)c1ccccc1 [Compound 365, (S)-5-((R)-2-hydroxy-2-phenylpropanoyl)-N-((S)-3-oxo-1-((S)-2-oxopyrrolidin-3-yl)-4-(trifluoromethoxy)butan-2-yl)-5-azaspiro[2.4]-heptane-6-carboxamide]",< 0.05 µM
4,"CC(C)C[C@H](NC(=O)C(=O)N1CCCc2ccccc21)C(=O)N[C@@H](C[C@@H]1CCNC1=O)C(=O)COc1c(F)c(F)cc(F)c1F [Compound 149, (S)-2-(2-(3,4-dihydroquinolin-1(2H)-yl)-2-oxoacetamido)-4-methyl-N-((S)-3-oxo-l-((S)-2-oxopyrrolidin-3-yl)-4-(2,3,5,6-tetrafluorophenoxy)butan-2-yl)pentanamide]",0.05 to 0.2 µM
5,"CC(C)C[C@H](NC(=O)C(=O)Nc1ccccc1Cc1ccccc1)C(=O)N[C@@H](C[C@@H]1CCNC1=O)C(=O)COc1c(F)c(F)cc(F)c1F [Compound 57, N1-(2-benzylphenyl)-N2-((S)-4-methyl-1-oxo-1-(((S)-3-oxo-1-((S)-2-oxopyrrolidin-3-yl)-4-(2,3,5,6-tetrafluorophenoxy)butan-2-yl)amino)pentan-2-yl)oxalamide]",0.2 to 0.5 µM

# Same assay, conditions: Severe acute respiratory syndrome coronavirus 2, HeLa-ACE2, 24 h, HeLa-ACE2 cells, SARS-CoV-2 infection, 24 h; read-out: EC50, uM (Hela)
row,Structure (SMILES),EC50
1,"O=C1NCC[C@H]1C[C@H](NC(=O)[C@@H]1[C@H]2CCC[C@H]2CN1C(=O)[C@H](O)c1ccccc1)C(=O)COC(F)(F)F [Compound 414, (1S,3aR,6aS)-2-((R)-2-hydroxy-2-phenylacetyl)-N-((S)-3-oxo-1-((S)-2-oxopyrrolidin-3-yl)-4-(trifluoromethoxy)butan-2-yl)octahydrocyclo-penta[c]pyrrole-1-carboxamide]",< 0.05 µM
2,"CC(C)C[C@@H](O)C(=O)N[C@@H](Cc1cccc(F)c1)C(=O)N[C@@H](C[C@@H]1CCNC1=O)C(=O)COC(F)(F)F [Compound 671, (R)-N-((S)-3-(3-fluorophenyl)-1-oxo-1-(((S)-3-oxo-1-((S)-2-oxopyrrolidin-3-yl)-4-(trifluoromethoxy)butan-2-yl)amino)propan-2-yl)-2-hydroxy-4-methylpentanamide]",< 0.05 µM
3,"Cc1ccccc1NC(=O)C(=O)N1C[C@@H]2CCC[C@@H]2[C@H]1C(=O)N[C@@H](C[C@@H]1CCNC1=O)C(=O)COC(F)(F)F [Compound 513, (1S,3aR,6aS)-N-((S)-3-oxo-1-((S)-2-oxopyrrolidin-3-yl)-4-(trifluoromethoxy)butan-2-yl)-2-(2-oxo-2-(o-tolylamino)acetyl)-octahydrocyclo-penta[c]pyrrole-1-carboxamide]",< 0.05 µM
4,"CC(C)[C@@H](O)CC(=O)N1CC2(CC2)C[C@H]1C(=O)N[C@@H](C[C@@H]1CCNC1=O)C(=O)COC(F)(F)F [Compound 432, (S)-5-((S)-3-hydroxy-4-methylpentanoyl)-N-((S)-3-oxo-1-((S)-2-oxopyrrolidin-3-yl)-4-(trifluoromethoxy)butan-2-yl)-5-azaspiro[2.4]heptane-6-carboxamide]",0.05 to 0.2 µM
5,"O=C1NCC[C@H]1C[C@H](NC(=O)[C@@H]1CC2(CC2)CN1C(=O)c1cccc(C(F)(F)F)c1)C(=O)COC(F)(F)F [Compound 457, (S)-N-((S)-3-oxo-1-((S)-2-oxopyrrolidin-3-yl)-4-(trifluoromethoxy)butan-2-yl)-5-(3-(trifluoromethyl)-benzoyl)-5-azaspiro[2.4]heptane-6-carboxamide]",< 0.05 µM
6,"O=C(NC1(C(F)(F)F)CC1)C(=O)N1C[C@@H]2CCC[C@@H]2[C@H]1C(=O)N[C@@H](C[C@@H]1CCNC1=O)C(=O)COC(F)(F)F [Compound 656, (1S,3aR,6aS)-N-((S)-3-oxo-1-((S)-2-oxopyrrolidin-3-yl)-4-(trifluoromethoxy)butan-2-yl)-2-(2-oxo-2-((1-(trifluoromethyl)cyclopropyl)amino)-acetyl)octahydrocyclopenta[c]pyrrole-1-carboxamide]",0.05 to 0.2 µM
7,"C[C@@](O)(C(=O)N1CC2(CC2)C[C@H]1C(=O)N[C@@H](C[C@@H]1CCNC1=O)C(=O)COC(F)(F)F)C(F)(F)F [Compound 722, (S)-N-((S)-3-oxo-1-((S)-2-oxopyrrolidin-3-yl)-4-(trifluoromethoxy)butan-2-yl)-5-((R)-3,3,3-trifluoro-2-hydroxy-2-methylpropanoyl)-5-azaspiro[2.4]heptane-6-carboxamide]",0.05 to 0.2 µM
8,"CCC(=O)O[C@H](CC(C)C)C(=O)N1CC2(CC2)C[C@H]1C(=O)N[C@@H](C[C@@H]1CCNC1=O)C(=O)COC(F)(F)F [Compound 626, (R)-4-methyl-1-oxo-1-((S)-6-(((S)-3-oxo-l-((S)-2-oxopyrrolidin-3-yl)-4-(trifluoromethoxy)butan-2-yl)carbamoyl)-5-azaspiro[2.4]heptan-5-yl)pentan-2-yl propionate]",< 0.05 µM
9,"CC(C)NC(=O)C(=O)N1CC2(CC2)C[C@H]1C(=O)N[C@@H](C[C@@H]1CCNC1=O)C(=O)COC(F)(F)F [Compound 747, (S)-5-(2-(isopropylamino)-2-oxoacetyl)-N-((S)-3-oxo-1-((S)-2-oxopyrrolidin-3-yl)-4-(trifluoromethoxy)butan-2-yl)-5-azaspiro[2.4]heptane-6-carboxamide]",< 0.05 µM
10,"CC[C@@H](NC(=O)OC(C)(C)C)C(=O)N1C[C@H]2[C@@H]([C@H]1C(=O)N[C@@H](CC1CCNC1=O)C(=O)COC(F)(F)F)C2(C)C (stereo in doubt) [Compound 438, tert-butyl ((R)-1-((1R,2S,5S)-6,6-dimethyl-2-(((S)-3-oxo-1-((S)-2-oxopyrrolidin-3-yl)-4-(trifluoromethoxy)butan-2-yl)carbamoyl)-3-azabicyclo[3.1.0]-hexan-3-yl)-1-oxobutan-2-yl)carbamate]",< 0.05 µM
11,"CC(C)(C)NC(=O)C(=O)N1CCC[C@@]1(CC1CC1)C(=O)N[C@@H](C[C@@H]1CCNC1=O)C(=O)COC(F)(F)F [Compound 567, (R)-1-(2-(tert-butylamino)-2-oxoacetyl)-2-(cyclopro-pylmethyl)-N-((S)-3-oxo-1-((S)-2-oxopyrrolidin-3-yl)-4-(trifluoromethoxy)butan-2-yl)pyrrolidine-2-carboxamide]",0.2 to 0.5 µM
